Data reported in the NIST ThermoML archive (doi:10.1016/j.jct.2016.09.030).

Assay: xn = mol fraction of the nth substance listed
Conditions: 100 kPa, Liquid; for viscosity: Concentric cylinders viscometry; for mass density: Vibrating tube method

CCOC(=O)CCC(=O)OCC [diethyl butanedioate] + CC(C)CCO
Conditions	mass density [kg/m3]	viscosity [mPa·s]
288.15 K, x1 = 0.1	845.17	3.582
288.15 K, x1 = 0.2	875.25	3.029
288.15 K, x1 = 0.3	902.72	2.76
288.15 K, x1 = 0.3999	927.82	2.625
288.15 K, x1 = 0.5	951.1	2.58
288.15 K, x1 = 0.5999	972.64	2.6
288.15 K, x1 = 0.7	992.67	2.667
288.15 K, x1 = 0.7999	1011.24	2.808
288.15 K, x1 = 0.9002	1028.55	2.943
288.15 K, x1 = 1	1044.83	3.195
293.15 K, x1 = 0.1	841.19	3.097
293.15 K, x1 = 0.2	871.04	2.621
293.15 K, x1 = 0.3	898.32	2.396
293.15 K, x1 = 0.3999	923.26	2.283
293.15 K, x1 = 0.5	946.4	2.25
293.15 K, x1 = 0.5999	967.82	2.271
293.15 K, x1 = 0.7	987.73	2.332
293.15 K, x1 = 0.7999	1006.2	2.455
293.15 K, x1 = 0.9002	1023.43	2.573
293.15 K, x1 = 1	1039.63	2.807
298.15 K, x1 = 0.1	837.19	2.712
298.15 K, x1 = 0.2	866.82	2.321
298.15 K, x1 = 0.3	893.91	2.139
298.15 K, x1 = 0.3999	918.7	2.053
298.15 K, x1 = 0.5	941.69	2.025
298.15 K, x1 = 0.5999	962.98	2.048
298.15 K, x1 = 0.7	982.79	2.103
298.15 K, x1 = 0.7999	1001.17	2.207
298.15 K, x1 = 0.9002	1018.32	2.308
298.15 K, x1 = 1	1034.44	2.491
303.15 K, x1 = 0.1	833.18	2.377
303.15 K, x1 = 0.2	862.59	2.056
303.15 K, x1 = 0.3	889.5	1.905
303.15 K, x1 = 0.3999	914.12	1.834
303.15 K, x1 = 0.5	936.98	1.817
303.15 K, x1 = 0.5999	958.15	1.838
303.15 K, x1 = 0.7	977.86	1.889
303.15 K, x1 = 0.7999	996.14	1.981
303.15 K, x1 = 0.9002	1013.2	2.069
303.15 K, x1 = 1	1029.25	2.229
308.15 K, x1 = 0.1	829.15	2.096
308.15 K, x1 = 0.2	858.35	1.831
308.15 K, x1 = 0.3	885.07	1.707
308.15 K, x1 = 0.3999	909.54	1.65
308.15 K, x1 = 0.5	932.26	1.638
308.15 K, x1 = 0.5999	953.31	1.661
308.15 K, x1 = 0.7	972.91	1.707
308.15 K, x1 = 0.7999	991.1	1.789
308.15 K, x1 = 0.9002	1008.09	1.868
308.15 K, x1 = 1	1024.08	2.008
313.15 K, x1 = 0.1	825.09	1.867
313.15 K, x1 = 0.2	854.08	1.649
313.15 K, x1 = 0.3	880.62	1.547
313.15 K, x1 = 0.3999	904.94	1.502
313.15 K, x1 = 0.5	927.52	1.496
313.15 K, x1 = 0.5999	948.47	1.518
313.15 K, x1 = 0.7	967.97	1.562
313.15 K, x1 = 0.7999	986.08	1.635
313.15 K, x1 = 0.9002	1002.99	1.706
313.15 K, x1 = 1	1018.9	1.821
318.15 K, x1 = 0.1	821.01	1.656
318.15 K, x1 = 0.2	849.79	1.475
318.15 K, x1 = 0.3	876.16	1.391
318.15 K, x1 = 0.3999	900.33	1.356
318.15 K, x1 = 0.5	922.78	1.354
318.15 K, x1 = 0.5999	943.61	1.377
318.15 K, x1 = 0.7	963.02	1.419
318.15 K, x1 = 0.7999	981.04	1.485
318.15 K, x1 = 0.9002	997.88	1.549
318.15 K, x1 = 1	1013.72	1.66
323.15 K, x1 = 0.1	816.9	1.496
323.15 K, x1 = 0.2	845.48	1.346
323.15 K, x1 = 0.3	871.68	1.271
323.15 K, x1 = 0.3999	895.7	1.247
323.15 K, x1 = 0.5	918.03	1.243
323.15 K, x1 = 0.5999	938.75	1.27
323.15 K, x1 = 0.7	958.06	1.308
323.15 K, x1 = 0.7999	975.99	1.369
323.15 K, x1 = 0.9002	992.76	1.428
323.15 K, x1 = 1	1008.55	1.523
